The record followed here is patent US20190055231A1, “BACE1 INHIBITORS” (Hoffmann-La Roche Inc., priority 2016, published 2019).

As usually defined, the clearance is the volume of plasma or blood freed of the substance per unit of time. A word on the bioavailability: it is the share of a dose that reaches the circulation, judged against a reference dose that is usually intravenous.

The nature of data set [1]: Cynomolgus monkey single dose PK study. Type of data set: in vivo, Cynomolgus monkey (Macacaca fascicularis). The text has this:
(§1) Cynomolgus Monkey (Macacaca fascicularis) Single Dose PK Study and Plasma Aβ40 Determination
(§2) Blood and plasma collection will always be performed in the treatment cage. The animal care keeper grabs either one arm or one leg through the bars. The hairs are shaved for better visibility of the vein. The blood vessel is squeezed, the vein is punctured by using a butterfly and blood is taken. Once enough blood has been withdrawn a cotton swab is placed over the injection site and the needle is gently removed. Bleeding is stopped by pressing a cotton swab on the wound. Plasma samples were taken between 5 min and 48 h.
Plasma Preparation Cynomolgus
(§3) Blood is transferred into a labeled EDTA-K2 Eppendorf tube and the sample is mixed by inverting the tubes several times. Blood is stored at −20° C.

A further data set addresses Mouse P-gp (Mus musculus, UniProt P21447). Briefly: P-gp transport assay (mouse). Format: in vitro ADME. To be noted: efflux ratio. The text has this:
(§4) P-Gp Transport Assay (Human and Mouse) (P-Gp Assay)
(§5) In the assay of the P-gp efflux ratio ER as described hereinabove, a compound with ER<2.5 is regarded most suitable. In addition, compounds with low hERG channel binding are suitable as well.

Another data set concerns the target Human P-gp (Homo sapiens, UniProt P08183). Briefly: P-gp transport assay (human). Type of data set: in vitro ADME. To be noted: efflux ratio.
Source text: as §4, §5

The next data set has as its system Plasma Aβ40. Briefly: Cynomolgus monkey plasma Aβ40 determination. Type of data set: in vivo, Cynomolgus monkey (Macacaca fascicularis).
Source text: as §1, §2, §3
Aβ determination in cynomolgous plasma samples was done after solid phase extraction (Lanz, T. et al., J. of Neuroscience Methods, 2006, 157:71-81). Frozen plasma samples were thawed in a 25° C. waterbath. […] Once samples were dried, they were stored at −80° C. or measured immediately. […]
Aβ concentration was determined following a modified protocol from Perkin-Elmer with a commercially available antibody against the N-terminal part of cynomolgus Aβ (6E10, Signet IG-39340) and an in-house C-terminal specific anti-Aβ40 antibody (BAP-24, Brockhaus M. et al., J. Neuroreport, 1998, 9:1481-1486). […]

The subject of data set [2] is Aβ40 in brain of wild-type mice. In words: Mouse acute in vivo model (inhibition of Aβ40 in brain of wild-type mice). Conditions: 4 h post dose. How it is done: Mouse Acute In Vivo Model (Inhibition of Aβ40 in Brain of Wild-Type Mice)
Single Dose Efficacy in Mice
The mouse single dose efficacy was measured in brain homogenate from C57Bl/6J wildtype mice after DEA extraction as described in H. Hilpert et al., J. Med. Chem. 2013, 56, 3980-3995 (dx.doi.org/10.1021/jm400225m).
Aβ 40 concentration was determined after solid phase extraction as described above and following a modified protocol from Perkin-Elmer with a commercially available antibody against the N-terminal part of rat Aβ (252Q6, Invitrogen cat. No. AMB0062) and an in-house C-terminal specific anti-Aβ40 antibody (BAP-24, Brockhaus M. et al., J. Neuroreport, 1998, 9:1481-1486) bound to acceptor beads (PerkinElmer, Cat. 6772002). 20 μl analyte per well (reconstituted extracts or standard) were loaded to a White Optiplate-96 (Perkin-Elmer, Cat#6005290). Then, a mixture of biotinylated BAP24 antibody (1:2000 diluted at approximately 1 nM final concentration) and antibody 252Q6 bound to AlphaLISA acceptor beads (Perkin-Elmer cat. No. 6772002 (1:100 diluted, 10 ug/mL final concentration) in 1× AlphaLISA buffer (Perkin-Elmer, AL000F) was added. After 1 hour room temperature incubation in the dark, 20 uL of a streptavidin coated donor beads dilution (40 μg/mL) were added and incubated for 30 minutes in the dark. Light emission at 615 nm was recorded using an EnVision AlphaScreen Reader (Perkin-Elmer). Levels of Aβ40 were calculated as percentage of the baseline samples from non-treated animals.
Aβ40 lowering was determined after oral administration in wild-type mice (C57Bl/6J mice, n=3-4) 4 h post dosing. Wild-type mice were used as they have a normal physiological level of APP expression and are thus expected to provide a better physiological model for Aβ-peptide production than APP-transgenic organisms. In vivo efficacy is a key factor for appropriate drug candidates, being more relevant than in vitro activities.

Sequence of Human P-gp (P08183 whole entry): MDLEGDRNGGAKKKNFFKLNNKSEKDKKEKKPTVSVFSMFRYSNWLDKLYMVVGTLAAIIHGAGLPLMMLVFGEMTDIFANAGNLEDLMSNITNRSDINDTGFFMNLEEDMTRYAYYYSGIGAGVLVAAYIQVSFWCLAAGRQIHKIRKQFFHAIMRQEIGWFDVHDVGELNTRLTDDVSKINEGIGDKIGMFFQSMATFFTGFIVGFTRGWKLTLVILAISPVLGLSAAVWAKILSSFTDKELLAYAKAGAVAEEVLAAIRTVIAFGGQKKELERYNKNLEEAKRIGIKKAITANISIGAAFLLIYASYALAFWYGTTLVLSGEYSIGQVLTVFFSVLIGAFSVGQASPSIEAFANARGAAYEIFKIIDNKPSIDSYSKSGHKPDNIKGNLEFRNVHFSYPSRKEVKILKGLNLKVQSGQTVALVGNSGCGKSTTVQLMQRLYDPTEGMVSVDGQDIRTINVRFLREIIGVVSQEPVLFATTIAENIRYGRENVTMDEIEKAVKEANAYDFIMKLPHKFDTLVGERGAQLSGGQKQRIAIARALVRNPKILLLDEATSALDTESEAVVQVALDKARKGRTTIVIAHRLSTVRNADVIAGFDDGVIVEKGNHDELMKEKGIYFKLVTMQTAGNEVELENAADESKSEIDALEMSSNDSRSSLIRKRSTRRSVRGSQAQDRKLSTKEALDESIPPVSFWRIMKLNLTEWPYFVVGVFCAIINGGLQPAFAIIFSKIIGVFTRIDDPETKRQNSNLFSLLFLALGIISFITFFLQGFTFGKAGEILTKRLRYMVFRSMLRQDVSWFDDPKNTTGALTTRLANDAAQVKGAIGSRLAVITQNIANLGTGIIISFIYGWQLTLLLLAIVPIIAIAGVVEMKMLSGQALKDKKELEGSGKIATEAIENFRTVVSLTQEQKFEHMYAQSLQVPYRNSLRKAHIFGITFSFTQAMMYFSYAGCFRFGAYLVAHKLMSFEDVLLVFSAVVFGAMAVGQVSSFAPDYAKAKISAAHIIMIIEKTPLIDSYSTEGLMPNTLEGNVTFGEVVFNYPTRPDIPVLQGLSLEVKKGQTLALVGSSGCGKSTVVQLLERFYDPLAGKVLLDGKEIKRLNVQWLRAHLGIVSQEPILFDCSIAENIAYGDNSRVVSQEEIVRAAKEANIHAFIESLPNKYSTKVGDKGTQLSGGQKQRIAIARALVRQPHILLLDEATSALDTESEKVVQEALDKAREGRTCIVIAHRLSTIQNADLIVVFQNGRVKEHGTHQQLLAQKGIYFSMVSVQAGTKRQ
Sequence of Mouse P-gp (P21447 whole entry): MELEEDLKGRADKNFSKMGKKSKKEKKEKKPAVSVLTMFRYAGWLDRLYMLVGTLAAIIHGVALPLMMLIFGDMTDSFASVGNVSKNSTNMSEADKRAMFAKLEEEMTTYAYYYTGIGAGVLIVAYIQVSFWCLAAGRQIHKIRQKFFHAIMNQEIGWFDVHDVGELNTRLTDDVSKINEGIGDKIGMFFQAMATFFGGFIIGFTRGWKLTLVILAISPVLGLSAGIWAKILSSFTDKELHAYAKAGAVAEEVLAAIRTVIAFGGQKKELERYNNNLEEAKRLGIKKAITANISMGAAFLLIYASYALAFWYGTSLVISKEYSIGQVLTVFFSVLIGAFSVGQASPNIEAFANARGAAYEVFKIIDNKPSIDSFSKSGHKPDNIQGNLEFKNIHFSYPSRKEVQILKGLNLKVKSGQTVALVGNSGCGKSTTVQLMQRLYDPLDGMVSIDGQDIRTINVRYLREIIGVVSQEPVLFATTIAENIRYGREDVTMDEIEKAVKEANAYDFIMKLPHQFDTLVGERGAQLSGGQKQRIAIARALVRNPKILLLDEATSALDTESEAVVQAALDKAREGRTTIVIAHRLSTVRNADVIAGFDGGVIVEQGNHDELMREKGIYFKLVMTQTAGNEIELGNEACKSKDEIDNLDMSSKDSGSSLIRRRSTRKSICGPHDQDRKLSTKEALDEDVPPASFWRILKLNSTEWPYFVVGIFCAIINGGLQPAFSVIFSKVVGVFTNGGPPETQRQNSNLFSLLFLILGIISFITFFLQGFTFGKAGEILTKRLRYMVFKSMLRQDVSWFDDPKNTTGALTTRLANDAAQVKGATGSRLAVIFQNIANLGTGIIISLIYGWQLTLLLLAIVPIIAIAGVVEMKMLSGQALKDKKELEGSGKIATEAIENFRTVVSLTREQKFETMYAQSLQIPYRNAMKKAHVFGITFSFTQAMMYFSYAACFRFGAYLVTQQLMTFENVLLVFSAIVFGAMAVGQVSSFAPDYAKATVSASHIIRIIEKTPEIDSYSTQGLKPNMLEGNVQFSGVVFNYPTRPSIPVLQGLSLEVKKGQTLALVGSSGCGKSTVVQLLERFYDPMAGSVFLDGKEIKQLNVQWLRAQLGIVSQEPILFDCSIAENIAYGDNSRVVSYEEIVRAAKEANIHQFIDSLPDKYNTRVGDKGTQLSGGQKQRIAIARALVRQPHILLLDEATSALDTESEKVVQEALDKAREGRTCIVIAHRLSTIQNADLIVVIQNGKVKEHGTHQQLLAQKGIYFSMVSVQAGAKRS

For `Cc1cc(C#N)cnc1C(=O)Nc1ccc(F)c([C@@]2(C)N=C(N)O[C@H](C(F)(F)F)[C@@H]2F)n1` [Example 1, N-(6-((4R,5R,6S)-2-amino-5-fluoro-4-methyl-6-(trifluoromethyl)-5,6-dihydro-4H-1,3-oxazin-4-yl)-5-fluoropyridin-2-yl)-5-cyano-3-methylpicolinamide], in data set [1] (p.o., dose normalized), the “AUC(0-24)/D p.o.” value was determined as 4160 kg·ng·h/mL/mg. For the same compound, the clearance in data set [1] (plasma) was determined as 2.1 mL/min/kg. Further, the bioavailability in data set [1] (plasma, po, read-out: Oral Bioavailability F) came to 52%. For the same compound, the half-life in data set [1] (plasma, po, read-out: t1/2 p.o. (converted)) was 19 h. The “Mouse P-gp ER” value at Mouse P-gp was 3.5. On Human P-gp, the “Human P-gp ER” value was 1.7. Moreover, the “Plasma Aβ-lowering 0.2 mg/kg at 24 h” value in the data set on Plasma Aβ40 (24 h post dose) came to 57%. Moreover, the “Plasma Aβ-lowering 0.2 mg/kg at 48 h” value in the data set with Plasma Aβ40 (48 h post dose) came out at 50%. Moreover, the “Brain Aβ-lowering 3 mg/kg” value in data set [2] (single p.o. dose 3 mg/kg) is on record as 58%. Also, the “Brain Aβ-lowering 10 mg/kg” value in data set [2] (single p.o. dose 10 mg/kg) is listed as 92%.
